Paper PMC11087268, “A folate inhibitor exploits metabolic differences in Pseudomonas aeruginosa for narrow-spectrum targeting” (Nature Microbiology, 2024)
In brackets after ≈: the same amount, converted by molar mass. Several values for one entry are separate records, joined by “and”; a condition that tells them apart may be missing. Identical values can stand only once.

How the values were obtained:
[1] = tested on: HLF (human lung fibroblast); experiment: Mammalian cell cytotoxicity, HLF; type: cell-based; conditions: 72 h, CyQUANT, read-out: IC50 Fluorofolin
Experimental: HK-2 (500 cells per well) (ATCC CRL-2190), HLF (500 cells per well) (Cell Applications 506K-05a), WI-38 (500 cells per well) (ATCC CCL-75) or PBMC (5,000 cells per well) (TPCS PB010C) cells were seeded in white opaque 384-well plates. After 24 h, DMSO or compounds were added in 3-fold dilutions and cells incubated for 72 h. For PBMC, CellTiter-Glo reagent was added in equal volume and incubated for 30 min, after which luminescence was read. For other cell types, CyQUANT detection reagent was added in equal volume and cells incubated for 1 h, after which fluorescence was read with standard green filter set […]. Cell toxicity was evaluated by Pharmaron.

human DHFR = target: T1, human DHFR (Homo sapiens, UniProt P00374); experiment: Human DHFR in vitro assay; type: biochemical; conditions: for Normalized activity to no drug control: human DHFR
T1 construct: purchased R&D Systems 8456-DR
T1 sequence (P00374 1-187): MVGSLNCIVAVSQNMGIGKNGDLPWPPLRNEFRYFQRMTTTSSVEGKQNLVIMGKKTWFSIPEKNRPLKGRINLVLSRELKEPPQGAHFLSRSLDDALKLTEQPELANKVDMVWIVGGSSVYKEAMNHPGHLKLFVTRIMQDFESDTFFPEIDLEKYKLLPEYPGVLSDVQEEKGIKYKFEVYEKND

E. cloacae = experiment: Growth with or without TMI supplementation and fluorofolin, E. cloacae; type: cell-based, Enterobacter cloacae; conditions: fluorofolin 2X MIC
Experimental: Where listed, growth media were prepared according manufacturer recommendations: LB broth and LB broth supplemented with 0.3 mM thymine (BD Biosciences 244610, Alfa Aesar A15879), 0.3 mM methionine (Sigma-Aldrich M9625), 0.3 mM inosine (EMD Millipore 4060), cation-adjusted Mueller–Hinton II broth (CAMHB) (BD 212322) or 0.3 mM thymidine (Sigma-Aldrich T1895), Gutnick minimal media (1.0 g l^−1 K2SO4, 13.5 g l^−1 K2HPO4, 4.7 g l^−1 KH2PO4, 0.1 g l^−1 MgSO4·7H2O, 10 mM NH4Cl as a nitrogen source and 0.4% w/v glucose as a carbon source)[65].
Extended Data Fig. 3 TMI supplementation can also rescue other species from fluorofolin DHFR inhibition. […] (f) P. aeruginosa PA14 or E. coli lptd4213 treated with fluorofolin 50 μg/mL in the presence or absence of 0.3 mM thymidine. (g) E. coli lptd4213 treated with fluorofolin 50 μg/mL and SMX (78.1 μg/mL) in the presence or absence of 0.3 mM thymidine or 0.3 mM TMI supplementation, Curves represent average optical at 600 nm (OD600) of 2 biological replicates. Means are shown. Source data

`Nc1nc(N)c2c(ccc3c2ccn3Cc2ccnc(F)c2)n1` [fluorofolin] was tested, and the IC50 [1] was 17.2 µg/mL (≈ 55.9 µM), the “Normalized activity to no drug control” value (human DHFR; Fluorofolin 0.12207 nM) was 1.039 and the “Normalized activity to no drug control” value (human DHFR; Fluorofolin 0.488281 nM) was 1.039. The “Normalized activity to no drug control” value (human DHFR; Fluorofolin 1.95312 nM, replicates _1, _2) was 0.9215 and 1.02, the “Normalized activity to no drug control” value (human DHFR; Fluorofolin 7.8125 nM, replicates _1, _2) was 0.5724 and 0.64 and the “Normalized activity to no drug control” value (human DHFR; Fluorofolin 31.25 nM, replicates _1, _2) was 0.387 and 0.4828. The “Normalized activity to no drug control” value (human DHFR; Fluorofolin 125 nM, replicates _1, _2) was 0.2567 and 0.2221, the “Normalized activity to no drug control” value (human DHFR; Fluorofolin 500 nM, replicates _1, _2) was 0.1373 and 0.1034 and the “Normalized activity to no drug control” value (human DHFR; Fluorofolin 2000 nM, replicates _1, _2) was 0.03994 and 0.01531. For the same compound, the IC50 (human DHFR; purified human DHFR) was 14 ± 4 nM and the “rescue of growth inhibition by TMI supplementation” value (E. cloacae) was “could also be rescued from fluorofolin growth inhibition by TMI supplementation”.
